Laboratory results as given in ChEMBL document CHEMBL4602738, “Looking toward the Rim of the Active Site Cavity of Druggable Human Carbonic Anhydrase Isoforms” (ACS Med Chem Lett, 2020).

Experiments:
[1] = biological target: Carbonic anhydrase 2 (Homo sapiens, UniProt P00918); test: Inhibition of human CA2 preincubated for 15 mins by stopped-flow carbon dioxide hydration assay
[2] = biological target: Carbonic anhydrase 9 (Homo sapiens, UniProt Q16790)
Description: Inhibition of human CA9 preincubated for 15 mins by stopped-flow carbon dioxide hydration assay

Structure (SMILES) | Ki [1] [µM] | Ki [2] [µM]
NS(=O)(=O)c1ccc(C(=O)N2CCN(C(=O)c3ccc(Cl)cc3)CC2)cc1 | 0.0072 | 0.0292
NS(=O)(=O)c1ccc(C(=O)N2CCN(C(=O)c3ccccc3F)CC2)cc1 | 0.0284 | 0.0687
NS(=O)(=O)c1ccc(C(=O)N2CCN(C(=O)c3ccc([N+](=O)[O-])cc3)CC2)cc1 | 0.0239 | 0.0112
NS(=O)(=O)c1ccc(C(=O)N2CCN(C(=O)c3ccccc3Cl)CC2)cc1 |  | 0.0622
Nc1ccccc1C(=O)N1CCN(C(=O)c2ccc(S(N)(=O)=O)cc2)CC1 | 0.0041 | 0.0191
NS(=O)(=O)c1ccc(C(=O)N2CCN(C(=O)c3ccccc3[N+](=O)[O-])CC2)cc1 | 0.0424 | 0.0098
NS(=O)(=O)c1ccc(C(=O)N2CCN(C(=O)c3ccc(F)cc3)CC2)cc1 | 0.0324 | 0.332
Nc1ccc(C(=O)N2CCN(C(=O)c3ccc(S(N)(=O)=O)cc3)CC2)cc1 | 0.0788 | 0.0143
NS(=O)(=O)c1ccc(C(=O)N2CCN(C(=O)c3ccccc3Br)CC2)cc1 | 0.003 | 0.0604
COc1ccccc1C(=O)N1CCN(C(=O)c2ccc(S(N)(=O)=O)cc2)CC1 | 0.0198 | 0.25

The next lines start with the values.

Ki [1] [µM] | Ki [2] [µM] | Structure (SMILES)
0.0363 | 0.36 | COc1cccc(C(=O)N2CCN(C(=O)c3ccc(S(N)(=O)=O)cc3)CC2)c1
0.00041 | 0.0038 | NS(=O)(=O)c1ccc(C(=O)N2CCN(C(=O)c3cccc(F)c3)CC2)cc1
0.0225 | 0.0544 | NS(=O)(=O)c1ccc(C(=O)N2CCN(C(=O)c3cccc(Cl)c3)CC2)cc1
0.0511 | 0.0152 | Nc1cccc(C(=O)N2CCN(C(=O)c3ccc(S(N)(=O)=O)cc3)CC2)c1
0.0006 | 0.0162 | NS(=O)(=O)c1ccc(C(=O)N2CCN(C(=O)c3cccc(Br)c3)CC2)cc1
0.0044 | 0.008 | NS(=O)(=O)c1ccc(C(=O)N2CCN(C(=O)c3ccc(Br)cc3)CC2)cc1
0.0286 | 0.0022 | NS(=O)(=O)c1ccc(C(=O)N2CCN(C(=O)c3cccc([N+](=O)[O-])c3)CC2)cc1
 | 0.0371 | NS(=O)(=O)c1ccc(C(=O)N2CCN(C(=O)c3ccccc3)CC2)cc1
